{
  "source": "patent US20230088719A1",
  "about": "“USE OF BMP INHIBITORS IN THE TREATMENT OF MOLAR PREGNANCY” (BOGAZICI UNIVERSITESI, priority 2020, published 2023)",
  "tested_on": "complete mole iPS cells",
  "experiment": "Trophoblast differentiation of complete mole iPS cells under AP conditions with BMP receptor inhibitor LDN193189",
  "assay_type": "cell-based, human",
  "experimental": "FIG. 9—Preventing trophoblast differentiation in complete mole iPS cells by inhibition of the BMP signaling pathway. Cells are exposed to vehicle (DMSO) or BMP receptor inhibitor LDN193189 (100 nM) under AP conditions. (A) Changes in colony morphology by LDN193189 treatment. Pictures were obtained with 4× magnification. (B) Heat map showing the expression of trophoblast markers during differentiation of healthy and complete mole iPS cells (n=2 biological replicas) (C-D) Violin plot representation of pluripotency and trophoblast markers (n=2, ****p<0.001, Wilcoxon rank total test) (E) RT-qPCR for trophoblast and stem cell markers. Sidak multiple comparison tests were applied following 2-way ANOVA, *p<0.05, **p<0.01, ***p<0.005, ****p<0.001. Bars; showing±Standard Deviation. (F) Representative immunoblots for CDX2, HLA-G, KRT7 and OCT3/4.\nIn accordance the purpose of the present invention, the inventors applied it to the nutrition fluid of cells under LDN193189 AP conditions to test whether BMP receptor inhibitors can attenuate trophoblast differentiation or not. […] (FIG. 10A)\nTrophoblast cells were formed from the obtained IPSCs under BAP or AP conditions. IPS cells were routinely kept on MEFs with hES medium (10 ng/mL FGF2). For trophoblast differentiation, 2.4×10^4 cells per square centimeter were seeded on matrigel-coated plates with conditioned hES medium through a monolayer of mitomycin-C treated MEF nutrient cells (MEF-CM) containing FGF2 (10 ng/mL). Next day, the medium was changed as MEF-CM containing 4 ng/mL FGF2. Next day, the medium was changed as BMP4 (10 ng/mL) containing unconditioned (BAP) hESC basal medium with MEF nutrient cells (RD Systems), ALK4/5/7 inhibitor, A83-01 (1 μM) (Tocris) and FGF2-signal inhibitor PD173074 […] (Sigma) (22, 27, 28). Control cultures were grown in the presence of FGF2 and in the absence of BAP. The medium was refreshed daily.\nTotal RNA was extracted using the Direct-zol RNA Isolation Kit (Zymogen) and cDNA was synthesized using the Sensifast cDNA synthesis kit (Bioline) as described by the manufacturer. Sequences of primers used in gene expression were synthesized by Macrogen as listed in table 3. qRT-PCR was performed on Exicycler™ 96 (Bioneer) using SensiFAST™ SYBRQR No-ROX Kit (Bioline). qRT-PCR results were analysed by the Ct method for relative amounts by taking GAPDH or HPRT as internal controls.\nCells were harvested in RIPA lysis buffer (150 mM NaCl, 1% NP40, 0.5% sodium deoxycholate, 0.1% SDS, 50 mM Tris pH 7.4) supplied with protease and phosphatase inhibitors (Roche, Switzerland). TCA-acetone precipitation was performed for the supernatants. Protein samples were applied to the SDS gel. Semi-dry transfer was performed by using Blotting papers (Sigma-Aldrich, USA) and PVDF membrane (Millipore, Ireland). After blocking with 5% non-fat dry milk, membranes were incubated overnight with primary antibodies (1:1000) at +4° C. Next day, the membrane was incubated with secondary antibodies connected with 1:2000 HRP according to the host origin of the primary antibody. Between all steps, membranes were washed 3 times with TBS-T. Immunoblot membranes were visualized with the Syngene documentation system by using ECL HRP Substrate (Advansta, USA).\nTotal RNA was extracted by using the Direct-zol RNA Isolation Kit (Zymogen) according to the protocol of the manufacturer (n=2 in all cases). Library preparation procedure by using Truseq strand mRNA LT Sample Preparation Kit (Illumina) and RNA sequencing procedure by using Hiseq2500 (Illumina) were performed by Macrogen Inc. (Korea). RNA sequence data were processed and interpreted with the Genialis visual computing platform (www.genialis.com). Briefly, RNA sequence readings were subjected to correction (BBDuk), mapping (STAR) and expression quantitation (featureCounts) procedures, respectively. The readings were mapped to Homo sapiens GRCh38 (Ensembl, version 92, ERCC). […]",
  "key": {"[1]": {"conditions": "complete mole cells, BMP pathway inhibition with LDN193189 100 nM, AP conditions, FIG. 9F"}, "[2]": {"conditions": "complete mole cells, LDN193189 100 nM, AP conditions, FIG. 9C-9D"}},
  "note": "“Also recorded” adds a separate entry of the source.",
  "data": [
    {"smiles": "c1ccc2c(-c3cnn4cc(-c5ccc(N6CCNCC6)cc5)cnc34)ccnc2c1", "note": "[LDN193189]", "values": [
      {"measurement": "trophoblast differentiation of complete mole cells", "setting": "LDN193189 100 nM, AP conditions, heat map of trophoblast markers FIG. 9B", "value": "inhibits trophoblast differentiation of complete mole cells; also recorded: suppression of excessive trophoblast differentiation"},
      {"measurement": "hierarchical clustering at whole transcriptome level", "setting": "cells treated with LDN193189, FIG. 10D", "value": "clustered with non-differentiated iPS cells"},
      {"measurement": "trophoblast gene expression by qRT-PCR", "setting": "complete mole cells, BMP pathway inhibition with LDN193189 100 nM, AP conditions, FIG. 9E", "value": "decrease in trophoblast gene expression"},
      {"measurement": "CDX2, KRT7, HLA-G expression (immunoblot)", "setting": "[1]", "value": "stopped CDX2, KRT7, HLA-G increase in expression"},
      {"measurement": "OCT3/4 expression (immunoblot)", "setting": "[1]", "value": "prevented decrease in expression (downregulation) of OCT3/4"},
      {"measurement": "colony morphology (light microscopy)", "setting": "complete mole cells, LDN193189 100 nM, AP conditions (A83-01+PD173074, no BMP4), vs DMSO vehicle, FIG. 9A", "value": "morphological phenotype similar to healthy cells"},
      {"measurement": "expression of pluripotency markers (RNA sequencing, violin plot)", "setting": "[2]", "value": "remained highly expressed"},
      {"measurement": "global expression of trophoblast markers (RNA sequencing, violin plot)", "setting": "[2]", "value": "decreased"}
    ]}
  ]
}
